The term IC50 denotes the point on the concentration scale where inhibition reaches its midpoint.

The target of one experiment is T1, Caspase-3 (Homo sapiens, UniProt P42574).
T1 sequence (P42574 whole entry): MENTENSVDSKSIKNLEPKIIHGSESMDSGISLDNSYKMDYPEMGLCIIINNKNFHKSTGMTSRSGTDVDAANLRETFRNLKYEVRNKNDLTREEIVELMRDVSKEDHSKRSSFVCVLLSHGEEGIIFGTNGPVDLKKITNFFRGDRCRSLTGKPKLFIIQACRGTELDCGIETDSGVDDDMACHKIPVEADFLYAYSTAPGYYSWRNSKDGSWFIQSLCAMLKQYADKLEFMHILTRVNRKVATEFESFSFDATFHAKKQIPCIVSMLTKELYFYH
Description: Inhibition of recombinant human caspase-3 activity using Ac-DEVD-AMC as substrate preincubated for 10 mins by fluorescence assay.

A further experiment deals with T2, Caspase-7 (Homo sapiens, UniProt P55210).
T2 sequence (P55210 whole entry): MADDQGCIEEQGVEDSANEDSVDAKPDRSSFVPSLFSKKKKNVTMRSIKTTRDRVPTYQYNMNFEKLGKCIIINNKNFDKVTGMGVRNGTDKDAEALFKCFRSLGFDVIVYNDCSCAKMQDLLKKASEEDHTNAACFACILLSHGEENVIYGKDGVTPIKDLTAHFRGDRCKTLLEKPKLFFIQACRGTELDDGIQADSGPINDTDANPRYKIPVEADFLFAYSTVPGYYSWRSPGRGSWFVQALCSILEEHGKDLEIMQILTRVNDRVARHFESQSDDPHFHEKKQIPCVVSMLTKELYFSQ
Description: Inhibition of recombinant human caspase-7 activity using Ac-DEVD-AMC as substrate preincubated for 10 mins by fluorescence assay.

Experiment [1] has as its system Jurkat. Description: Antiapoptotic activity in camptothecin-induced human Jurkat cells assessed as apoptotic cells at 10 uM after 2 hrs using Annexin V-FITC and 7-AAD by flow cytometry relative to control. The format is functional. In general terms: In flow cytometry, cells or beads pass a laser one at a time.
Experiment [2] concerns Jurkat. Description: Antiapoptotic activity in camptothecin-induced human Jurkat cells assessed as apoptotic cells at 50 uM after 2 hrs using Annexin V-FITC and 7-AAD by flow cytometry relative to control. The format is functional.

SMILES strings stand for the structures. Residues, ends and D or L forms follow the SMILES beside them. *: point of attachment. Cbz = O=C(OCc1ccccc1)*; CH2F = FC*

Turning to `O=C(Nc1ccc(N2CCOCC2)cc1)n1sc2ccccc2c1=O`, the IC50 on Caspase-3 was 106 nM; on Caspase-7, 164 nM.
For `O=C(Cc1ccccc1)n1sc2ccccc2c1=O`, the IC50 at Caspase-3 came to 292 nM; on Caspase-7, 269 nM.
On to `Cc1ccccc1CC(=O)n1sc2ccccc2c1=O`, for which the figures for the IC50 at Caspase-3 and at Caspase-7 were 200 nM and 370 nM, respectively.
In the case of `Cc1cccc(CC(=O)n2sc3ccccc3c2=O)c1`, the half-maximal inhibitory concentration (IC50) at Caspase-3 stood at 339 nM; on Caspase-7, 184 nM.
With `Cc1ccc(CC(=O)n2sc3ccccc3c2=O)cc1`, the IC50 on Caspase-3 was 214 nM; at Caspase-7, 182 nM.
Taken in the same sequence, the figures for `COc1ccccc1CC(=O)n1sc2ccccc2c1=O` were 219 nM and 207 nM.
Consider `COc1cccc(CC(=O)n2sc3ccccc3c2=O)c1`, for which the figures for the IC50 at Caspase-3 and at Caspase-7 were 548 nM and 211 nM, respectively.
As for `COc1ccc(CC(=O)n2sc3ccccc3c2=O)cc1`, the IC50 turned out to be 1340 nM on Caspase-3 and 213 nM at Caspase-7.
Turning to `O=C(Cc1ccccc1F)n1sc2ccccc2c1=O`, the IC50 was 186 nM on Caspase-3 and 123 nM on Caspase-7.
As to `O=C(Cc1cccc(F)c1)n1sc2ccccc2c1=O`, the IC50 at Caspase-3 came to 899 nM; on Caspase-7 it was 458 nM.
`O=C(Cc1ccc(F)cc1)n1sc2ccccc2c1=O`: the IC50 on Caspase-3 was 1200 nM; at Caspase-7, 608 nM.
Consider `O=C(Cc1ccccc1Cl)n1sc2ccccc2c1=O`, for which the IC50 at Caspase-3 was determined as 193 nM; at Caspase-7 it was 145 nM.
Taken in the same sequence, the figures for `O=C(Cc1cccc(Cl)c1)n1sc2ccccc2c1=O` were 272 nM and 607 nM.
On to `O=C(Cc1ccc(Cl)cc1)n1sc2ccccc2c1=O`, for which the IC50 was 215 nM at Caspase-3 and 586 nM at Caspase-7.
As to `O=C(Cc1ccc(O)cc1)n1sc2ccccc2c1=O`, the values for the half-inhibitory concentration (IC50) at Caspase-3 and at Caspase-7 were 326 nM and 330 nM, respectively.
For `O=C(Cc1ccc(Cl)c(Cl)c1)n1sc2ccccc2c1=O` the same measures were 654 nM and 198 nM.
For `O=C(CCc1ccccc1)n1sc2ccccc2c1=O`, the IC50 at Caspase-3 came to 108 nM; at Caspase-7, 112 nM.
Taken in the same sequence, the figures for `Cc1cccc(CCC(=O)n2sc3ccccc3c2=O)c1` were 95 nM and 109 nM.
With `Cc1ccc(CCC(=O)n2sc3ccccc3c2=O)cc1`, the 50% inhibitory concentration (IC50) was 119 nM at Caspase-3 and 72.5 nM at Caspase-7.
In the case of `COc1ccccc1CCC(=O)n1sc2ccccc2c1=O`, the IC50 on Caspase-3 worked out at 137 nM; at Caspase-7 it was 63.7 nM.
As to `COc1cccc(CCC(=O)n2sc3ccccc3c2=O)c1`, the IC50 at Caspase-3 turned out to be 34.9 nM; on Caspase-7 it was 54 nM. For the same compound, the Activity in the experiment with Jurkat [1] was found to be 36.6%; with Jurkat [2], 100%.
On to `COc1ccc(CCC(=O)n2sc3ccccc3c2=O)cc1`, for which the IC50 on Caspase-3 amounted to 49.7 nM; at Caspase-7, 51.9 nM. In addition, the Activity was determined as 37.5% with Jurkat [1] and 100% in the experiment on Jurkat [2].
For `O=C(CCc1ccccc1F)n1sc2ccccc2c1=O`, the IC50 was 130 nM on Caspase-3 and 86.9 nM on Caspase-7.
For `O=C(CCc1cccc(F)c1)n1sc2ccccc2c1=O` the same measures were 87.7 nM and 78.4 nM.
Taken in the same sequence, the figures for `O=C(CCc1ccc(F)cc1)n1sc2ccccc2c1=O` were 112 nM and 59.7 nM.
Regarding `O=C(CCc1ccccc1Cl)n1sc2ccccc2c1=O`, the figures for the IC50 at Caspase-3 and at Caspase-7 were 47.3 nM and 158 nM, respectively.
`O=C(CCc1ccc(Cl)cc1)n1sc2ccccc2c1=O`: the IC50 on Caspase-3 is 56.9 nM; at Caspase-7, 72.7 nM.
Consider `O=C(CCCc1ccccc1)n1sc2ccccc2c1=O`, for which the IC50 at Caspase-3 stood at 182 nM; at Caspase-7, 166 nM.
Regarding `Cc1ccc(CCCC(=O)n2sc3ccccc3c2=O)cc1`, the IC50 was 266 nM at Caspase-3 and 97.9 nM at Caspase-7.
As for `COc1ccc(CCCC(=O)n2sc3ccccc3c2=O)cc1`, the values for the IC50 at Caspase-3 and on Caspase-7 were 390 nM and 74.9 nM, respectively.
Take `O=C(CCCCc1ccccc1)n1sc2ccccc2c1=O`: the figures for the concentration for half-maximal inhibition (IC50) on Caspase-3 and on Caspase-7 were 306 nM and 101 nM, respectively.
`O=C(Cc1cccs1)n1sc2ccccc2c1=O`: the IC50 at Caspase-3 was determined as 32200 nM; at Caspase-7 it was 18100 nM.
Regarding `O=C(CCC(=O)n1sc2ccccc2c1=O)c1cccs1`, the figures for the IC50 on Caspase-3 and on Caspase-7 were 235 nM and 56.7 nM, respectively.
Regarding `O=C(CCCc1cccs1)n1sc2ccccc2c1=O`, the IC50 on Caspase-3 was 127 nM; on Caspase-7 it was 115 nM.
For the compound `O=C(Cc1ccc(-c2ccccc2)cc1)n1sc2ccccc2c1=O`, the IC50 was found to be 141 nM at Caspase-3 and 115 nM at Caspase-7.
Taken in the same sequence, the figures for `O=C(Cc1ccc2ccccc2c1)n1sc2ccccc2c1=O` were 265 nM and 297 nM.
For `O=C(Cc1ccc2c(c1)CCO2)n1sc2ccccc2c1=O` the same measures were 222 nM and 185 nM.
Regarding `CC(=O)N[C@@H](CC(=O)O)C(=O)N[C@@H](CCC(=O)O)C(=O)N[C@H](C(=O)N[C@H](C=O)CC(=O)O)C(C)C`, the concentration for half-maximal inhibition (IC50) at Caspase-7 turned out to be 155 nM.
Take `COC(=O)C[C@H](NC(=O)[C@H](C)NC(=O)[C@@H](NC(=O)OCc1ccccc1)C(C)C)C(=O)CF` (Cbz-Val-Ala-Asp(OMe)-CH2F): the Activity with Jurkat [1] came out at 40.2%.

The record behind these values is ChEMBL document CHEMBL3352459, “Synthesis and evaluation of N-acyl-substituted 1,2-benzisothiazol-3-one derivatives as caspase-3 inhibitors” (Bioorg Med Chem, 2014).
